Source: ChEMBL document CHEMBL4004849, “Tetrazolylmethyl quinolines: Design, docking studies, synthesis, anticancer and antifungal analyses” (2017)
In brackets after ≈: the same amount, converted by molar mass. Activity calls are given as the source filed them. The calls are words filed in the database; no cut-off is given here.

Key:
Format in all cases: functional
HL-60(TB) = test: Growth inhibition of human HL-60(TB) cells at 10^-5 M incubated for 48 hrs by sulforhodamine B assay relative to control
MOLT-4 = test: Growth inhibition of human MOLT4 cells at 10^-5 M incubated for 48 hrs by sulforhodamine B assay relative to control
SR = test: Growth inhibition of human SR cells at 10^-5 M incubated for 48 hrs by sulforhodamine B assay relative to control
A549 = test: Growth inhibition of human A549/ATCC cells at 10^-5 M incubated for 48 hrs by sulforhodamine B assay relative to control
EKVX = test: Growth inhibition of human EKVX cells at 10^-5 M incubated for 48 hrs by sulforhodamine B assay relative to control
NCI-H226 = test: Growth inhibition of human NCI-H226 cells at 10^-5 M incubated for 48 hrs by sulforhodamine B assay relative to control
NCI-H522 = test: Growth inhibition of human NCI-H522 cells at 10^-5 M incubated for 48 hrs by sulforhodamine B assay relative to control
COLO 205 = test: Growth inhibition of human COLO205 cells at 10^-5 M incubated for 48 hrs by sulforhodamine B assay relative to control
HCC 2998 = test: Growth inhibition of human HCC2998 cells at 10^-5 M incubated for 48 hrs by sulforhodamine B assay relative to control
HCT-116 = test: Growth inhibition of human HCT116 cells at 10^-5 M incubated for 48 hrs by sulforhodamine B assay relative to control
HCT-15 = test: Growth inhibition of human HCT15 cells at 10^-5 M incubated for 48 hrs by sulforhodamine B assay relative to control
HT-29 = test: Growth inhibition of human HT-29 cells at 10^-5 M incubated for 48 hrs by sulforhodamine B assay relative to control
KM12 = test: Growth inhibition of human KM12 cells at 10^-5 M incubated for 48 hrs by sulforhodamine B assay relative to control
SF-268 = test: Growth inhibition of human SF268 cells at 10^-5 M incubated for 48 hrs by sulforhodamine B assay relative to control
SF-295 = test: Growth inhibition of human SF295 cells at 10^-5 M incubated for 48 hrs by sulforhodamine B assay relative to control
SF-539 = test: Growth inhibition of human SF539 cells at 10^-5 M incubated for 48 hrs by sulforhodamine B assay relative to control
SNB-19 = test: Growth inhibition of human SNB19 cells at 10^-5 M incubated for 48 hrs by sulforhodamine B assay relative to control
SNB-75 = test: Growth inhibition of human SNB75 cells at 10^-5 M incubated for 48 hrs by sulforhodamine B assay relative to control
U-251 = test: Growth inhibition of human U251 cells at 10^-5 M incubated for 48 hrs by sulforhodamine B assay relative to control
LOX IMVI = test: Growth inhibition of human LOXIMVI cells at 10^-5 M incubated for 48 hrs by sulforhodamine B assay relative to control
Malme-3M = test: Growth inhibition of human MALME-3M cells at 10^-5 M incubated for 48 hrs by sulforhodamine B assay relative to control
M14 = test: Growth inhibition of human M14 cells at 10^-5 M incubated for 48 hrs by sulforhodamine B assay relative to control
MDA-MB-435 = test: Growth inhibition of human MDA-MB-435 cells at 10^-5 M incubated for 48 hrs by sulforhodamine B assay relative to control
SK-MEL-2 = test: Growth inhibition of human SK-MEL-2 cells at 10^-5 M incubated for 48 hrs by sulforhodamine B assay relative to control
SK-MEL-28 = test: Growth inhibition of human SK-MEL-28 cells at 10^-5 M incubated for 48 hrs by sulforhodamine B assay relative to control
SK-MEL-5 = test: Growth inhibition of human SK-MEL-5 cells at 10^-5 M incubated for 48 hrs by sulforhodamine B assay relative to control
UACC-257 = test: Growth inhibition of human UACC257 cells at 10^-5 M incubated for 48 hrs by sulforhodamine B assay relative to control
OVCAR-3 = test: Growth inhibition of human OVCAR3 cells at 10^-5 M incubated for 48 hrs by sulforhodamine B assay relative to control
OVCAR-4 = test: Growth inhibition of human OVCAR4 cells at 10^-5 M incubated for 48 hrs by sulforhodamine B assay relative to control
OVCAR-5 = test: Growth inhibition of human OVCAR5 cells at 10^-5 M incubated for 48 hrs by sulforhodamine B assay relative to control
NCI/ADR-RES = test: Growth inhibition of human NCI-ADR-RES cells at 10^-5 M incubated for 48 hrs by sulforhodamine B assay relative to control
SK-OV-3 = test: Growth inhibition of human SKOV3 cells at 10^-5 M incubated for 48 hrs by sulforhodamine B assay relative to control
786-0 = test: Growth inhibition of human 786-0 cells at 10^-5 M incubated for 48 hrs by sulforhodamine B assay relative to control
CAKI-1 = test: Growth inhibition of human Caki1 cells at 10^-5 M incubated for 48 hrs by sulforhodamine B assay relative to control
UO-31 = test: Growth inhibition of human UO31 cells at 10^-5 M incubated for 48 hrs by sulforhodamine B assay relative to control
MCF7 = test: Growth inhibition of human MCF7 cells at 10^-5 M incubated for 48 hrs by sulforhodamine B assay relative to control
MDA-MB-231 = test: Growth inhibition of human MDA-MB-231/ATCC cells at 10^-5 M incubated for 48 hrs by sulforhodamine B assay relative to control
Hs-578T = test: Growth inhibition of human Hs 578T cells at 10^-5 M incubated for 48 hrs by sulforhodamine B assay relative to control
BT-549 = test: Growth inhibition of human BT549 cells at 10^-5 M incubated for 48 hrs by sulforhodamine B assay relative to control
T47D = test: Growth inhibition of human T47D cells at 10^-5 M incubated for 48 hrs by sulforhodamine B assay relative to control
MDA-MB-468 = test: Growth inhibition of human MDA-MB-468 cells at 10^-5 M incubated for 48 hrs by sulforhodamine B assay relative to control
Candida albicans = test: Antifungal activity against Candida albicans after 24 hrs by serial dilution method
Aspergillus fumigatus [1] = test: Antifungal activity against Aspergillus fumigatus at 100 ug/ml by disc diffusion method; conditions: read-out: IZ
Aspergillus fumigatus [2] = test: Antifungal activity against Aspergillus fumigatus after 24 hrs by serial dilution method

Clc1nc2ccccc2cc1Cn1nnnc1Cc1ccccc1
growth inhibition (GI) (HL-60(TB)): Active
growth inhibition (GI) (MOLT-4): Active
growth inhibition (GI) (SR): Active
growth inhibition (GI) (A549): Active
growth inhibition (GI) (EKVX): Active
growth inhibition (GI) (NCI-H226): Active
growth inhibition (GI) (NCI-H522): Active
growth inhibition (GI) (COLO 205): Active
growth inhibition (GI) (HCC 2998): Active
growth inhibition (GI) (HCT-116): Active
growth inhibition (GI) (HCT-15): Active
growth inhibition (GI) (HT-29): Active
growth inhibition (GI) (KM12): Active
growth inhibition (GI) (SF-268): Active
growth inhibition (GI) (SF-295): Active
growth inhibition (GI) (SF-539): Active
growth inhibition (GI) (SNB-19): Active
growth inhibition (GI) (SNB-75): Active
growth inhibition (GI) (U-251): Active
growth inhibition (GI) (LOX IMVI): Active
growth inhibition (GI) (Malme-3M): Active
growth inhibition (GI) (M14): Active
growth inhibition (GI) (MDA-MB-435): Active
growth inhibition (GI) (SK-MEL-2): Active
growth inhibition (GI) (SK-MEL-28): Active
growth inhibition (GI) (SK-MEL-5): Active
growth inhibition (GI) (UACC-257): Active
growth inhibition (GI) (OVCAR-3): Active
growth inhibition (GI) (OVCAR-4): Active
growth inhibition (GI) (OVCAR-5): Active
growth inhibition (GI) (NCI/ADR-RES): Active
growth inhibition (GI) (SK-OV-3): Active
growth inhibition (GI) (786-0): Active
growth inhibition (GI) (CAKI-1): Active
growth inhibition (GI) (UO-31): Active
growth inhibition (GI) (MCF7): Active
growth inhibition (GI) (MDA-MB-231): Active
growth inhibition (GI) (Hs-578T): Active
growth inhibition (GI) (BT-549): Active
growth inhibition (GI) (T47D): Active
growth inhibition (GI) (MDA-MB-468): Active
MIC (Candida albicans): 25 µg/mL (≈ 74.4 µM)
zone of inhibition at 100 µg/mL (Aspergillus fumigatus [1]): 14 mm
MIC (Aspergillus fumigatus [2]): 50 µg/mL (≈ 149 µM)

Clc1nc2ccc(Br)cc2cc1Cn1nnc(Cc2ccccc2)n1
growth inhibition (GI) (HL-60(TB)): Active
growth inhibition (GI) (MOLT-4): Active
growth inhibition (GI) (SR): Active
growth inhibition (GI) (A549): Active
growth inhibition (GI) (EKVX): Active
growth inhibition (GI) (NCI-H226): Active
growth inhibition (GI) (NCI-H522): Active
growth inhibition (GI) (COLO 205): Active
growth inhibition (GI) (HCC 2998): Active
growth inhibition (GI) (HCT-116): Active
growth inhibition (GI) (HCT-15): Active
growth inhibition (GI) (HT-29): Active
growth inhibition (GI) (KM12): Active
growth inhibition (GI) (SF-268): Active
growth inhibition (GI) (SF-295): Active
growth inhibition (GI) (SF-539): Active
growth inhibition (GI) (SNB-19): Active
growth inhibition (GI) (SNB-75): Active
growth inhibition (GI) (U-251): Active
growth inhibition (GI) (LOX IMVI): Active
growth inhibition (GI) (Malme-3M): Active
growth inhibition (GI) (M14): Active
growth inhibition (GI) (MDA-MB-435): Active
growth inhibition (GI) (SK-MEL-2): Active
growth inhibition (GI) (SK-MEL-28): Active
growth inhibition (GI) (SK-MEL-5): Active
growth inhibition (GI) (UACC-257): Active
growth inhibition (GI) (OVCAR-3): Active
growth inhibition (GI) (OVCAR-4): Active
growth inhibition (GI) (OVCAR-5): Active
growth inhibition (GI) (NCI/ADR-RES): Active
growth inhibition (GI) (SK-OV-3): Active
growth inhibition (GI) (786-0): Active
growth inhibition (GI) (CAKI-1): Active
growth inhibition (GI) (UO-31): Active
growth inhibition (GI) (MCF7): Active
growth inhibition (GI) (MDA-MB-231): Active
growth inhibition (GI) (Hs-578T): Active
growth inhibition (GI) (BT-549): Active
growth inhibition (GI) (T47D): Active
growth inhibition (GI) (MDA-MB-468): Active
MIC (Candida albicans): 10 µg/mL (≈ 24.1 µM)
zone of inhibition at 100 µg/mL (Aspergillus fumigatus [1]): 13 mm
MIC (Aspergillus fumigatus [2]): 10 µg/mL (≈ 24.1 µM)

COc1ccc2nc(Cl)c(Cn3nnnc3CSc3ccccc3)cc2c1
growth inhibition (GI) (HL-60(TB)): Active
growth inhibition (GI) (MOLT-4): Active
growth inhibition (GI) (SR): Active
growth inhibition (GI) (A549): Active
growth inhibition (GI) (EKVX): Active
growth inhibition (GI) (NCI-H226): Active
growth inhibition (GI) (NCI-H522): Active
growth inhibition (GI) (COLO 205): Active
growth inhibition (GI) (HCC 2998): Active
growth inhibition (GI) (HCT-116): Active
growth inhibition (GI) (HCT-15): Active
growth inhibition (GI) (HT-29): Active
growth inhibition (GI) (KM12): Active
growth inhibition (GI) (SF-268): Active
growth inhibition (GI) (SF-295): Active
growth inhibition (GI) (SF-539): Active
growth inhibition (GI) (SNB-19): Active
growth inhibition (GI) (SNB-75): Active
growth inhibition (GI) (U-251): Active
growth inhibition (GI) (LOX IMVI): Active
growth inhibition (GI) (Malme-3M): Active
growth inhibition (GI) (M14): Active
growth inhibition (GI) (MDA-MB-435): Active
growth inhibition (GI) (SK-MEL-2): Active
growth inhibition (GI) (SK-MEL-28): Active
growth inhibition (GI) (SK-MEL-5): Active
growth inhibition (GI) (UACC-257): Active
growth inhibition (GI) (OVCAR-3): Active
growth inhibition (GI) (OVCAR-4): Active
growth inhibition (GI) (OVCAR-5): Active
growth inhibition (GI) (NCI/ADR-RES): Active
growth inhibition (GI) (SK-OV-3): Active
growth inhibition (GI) (786-0): Active
growth inhibition (GI) (CAKI-1): Active
growth inhibition (GI) (UO-31): Active
growth inhibition (GI) (MCF7): Active
growth inhibition (GI) (MDA-MB-231): Active
growth inhibition (GI) (Hs-578T): Active
growth inhibition (GI) (BT-549): Active
growth inhibition (GI) (T47D): Active
growth inhibition (GI) (MDA-MB-468): Active
MIC (Candida albicans): 25 µg/mL (≈ 62.8 µM)
zone of inhibition at 100 µg/mL (Aspergillus fumigatus [1]): 18 mm
MIC (Aspergillus fumigatus [2]): 10 µg/mL (≈ 25.1 µM)
